From US8039219B2, “Method of using GPR35 to identify metabolic-stabilizing compounds” (Arena Pharmaceuticals, Inc., priority 2004, dated 2011)

Tests used:
GPR35 = GPR35 (Homo sapiens, UniProt Q9HC97); settings: reported by Wang et al., J. Biol. Chem. 281:22021-22028 (2006); cited from earlier work
[1] = system: mouse GPR35 expression in 3T3-L1 adipocytes; test: TaqMan analysis of mouse GPR35 expression in 3T3-L1 adipocytes after treatments; format: cell-based; settings: 10 μM Linoleic Acid, 1 and 24 hours, serum free media; control untreated adipocytes at time 0; FIG. 8
Method: GPR35 expression in 3T3-L1 adipocytes was then analyzed after certain treatments, such as treatment with linoleic acid. Briefly, 3T3-L1 cells were differentiated into adipocytes using a standardized protocol found in Patel Y M, Lane M D. (Role of calpain in adipocyte differentiation. Proc. Natl. Acad. Sci. USA 96:1279-1284, 1999). Cells were then treated for 1 and 24 hours in serum free media containing either 50 nM insulin (Sigma Cat # I-1882), 10 μM Linoleic Acid (Calbiochem Cat # 436305 lot #B52793), 50 pg/ml IL-1Beta (R&D Systems Cat # 401-ML lot #BN034012), 0.5 ng/mL TNF-alpha (R&D Systems Cat# 410-MT lot # CS083051). Control was untreated 3T3-L1 adipocytes at time 0. RNA was then isolated using Trizol method (Invitrogen Cat # 15596-018). cDNA was made using Biorad iScript cDNA Synthesis Kit.
A 1× TaqMan supermix was made in a 5 mL polypropylene tube. Forward and Reverse primers were added to give a 300 nM final concentration; appropriate amount of probe was added to give a final concentration of 200 nM. Total volume per well was 20 μL. 2 μL was cDNA, while the other 18 μL was TaqMan supermix and nuclease-free water. The sequence for primers and the probe were: […]
The thermo cycler conditions used were: (1) initial steps: hold for 2 minutes at 50° C., then hold for 10 minutes at 95° C. […]

Sequence of GPR35 (Q9HC97 whole entry, species assumed): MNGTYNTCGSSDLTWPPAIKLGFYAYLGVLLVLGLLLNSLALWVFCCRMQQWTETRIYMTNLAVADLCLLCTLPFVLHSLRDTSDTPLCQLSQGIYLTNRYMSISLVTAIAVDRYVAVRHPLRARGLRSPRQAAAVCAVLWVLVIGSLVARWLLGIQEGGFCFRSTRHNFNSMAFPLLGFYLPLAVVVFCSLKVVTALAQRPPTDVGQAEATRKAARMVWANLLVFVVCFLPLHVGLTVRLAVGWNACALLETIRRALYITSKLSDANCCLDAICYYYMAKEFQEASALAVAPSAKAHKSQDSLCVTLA

Compound | ligand for GPR35 (GPR35) | GPR35 expression in 3T3-L1 adipocytes [1]
O=C(O)c1cc(=O)c2ccccc2[nH]1 [kynurenic acid] | ligand for GPR35 | –
CCCCC/C=C\C/C=C\CCCCCCCC(=O)O [linoleic acid] | – | significantly increased
